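Assay format: 96-well plates, 48-hour exposure. Abbreviation: GI50, concentration required for 50% inhibition of growth. The concentration for full growth arrest is given as TGI.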

Some test systems named below: 786-0 renal; MDA-N; KM12 colon; NCI-H226 lung; COLO 205 colon; A549 NSCLC; SF-268 CNS; DU-145 prostate; UACC-62 melanoma.
What all share (test): NCI anticancer screen, dose series, 48 h

Consider `Nc1ccc2ccc(-c3ccc[nH]3)nc2n1`, for which the TGI with 786-0 renal, with MDA-N, in the test on KM12 colon, in the test on NCI-H226 lung, in the test with COLO 205 colon and in the test on A549 NSCLC was over 100 µM throughout. In the test on SF-268 CNS, the TGI is over 100 µM.

Turning to `COP(=O)(O)C(N)Cc1c[nH]c2ccccc12` (stereo unspecified), the TGI in the test with MDA-N, in the test with NCI-H226 lung, in the test on DU-145 prostate, with COLO 205 colon and in the test with A549 NSCLC was over 100 µM in each case.

As to `CC1=CCC[C@H]2[C@](C)(CC3=CC(=O)C(Sc4ccccc4)=CC3=O)[C@@H](C)CC[C@]12C`, the TGI in the test on 786-0 renal is 32.2 µM; in the test on MDA-N it was 32.4 µM; with KM12 colon it was over 100 µM; in the test on NCI-H226 lung, 27.8 µM; in the test on DU-145 prostate, 47.4 µM; in the test with COLO 205 colon, 29.5 µM. The TGI amounted to 33.3 µM in the test on A549 NSCLC and 55.3 µM in the test on UACC-62 melanoma.

Take `CC(C)(C)OC(=O)N1[C@@H]2Cc3ccc(N)cc3[C@@]1(C)c1ccccc12`: the TGI was 36.2 µM with 786-0 renal; 45.3 µM in the test with MDA-N; over 100 µM in the test on KM12 colon; over 100 µM in the test on DU-145 prostate; over 100 µM in the test with A549 NSCLC; over 100 µM with SF-268 CNS. Also, the TGI with UACC-62 melanoma was 53.6 µM.

Regarding `CC12CCC(C(=Nc3cc(C(F)(F)F)cc(C(F)(F)F)c3)C1=O)C2(C)C` (stereo unspecified), the TGI with 786-0 renal is over 100 µM; in the test on KM12 colon, 91.7 µM; in the test with NCI-H226 lung, over 100 µM; in the test with DU-145 prostate it was over 100 µM; in the test with COLO 205 colon, 34.1 µM; in the test on A549 NSCLC it was over 100 µM. Also, the TGI in the test on SF-268 CNS is 84.5 µM; in the test with UACC-62 melanoma, over 100 µM.

Consider `c1csc(-c2ccsc2-c2ccsc2)c1`, for which the TGI with 786-0 renal, with MDA-N, with KM12 colon, in the test with DU-145 prostate, with COLO 205 colon and in the test on A549 NSCLC was over 100 µM each time. The TGI in the test with SF-268 CNS and with UACC-62 melanoma was over 100 µM in each case.

Take `COC(=O)NC(Cc1ccccc1)NC(C)=O` (stereo unspecified): the TGI with 786-0 renal, in the test on MDA-N, with KM12 colon, in the test with DU-145 prostate, with COLO 205 colon and with A549 NSCLC was over 100 µM in each case. Also, the TGI in the test with SF-268 CNS and in the test on UACC-62 melanoma was over 100 µM throughout.

With `N[C@H](CCC(=O)NCP(=O)(O)O)C(=O)O`, the TGI with 786-0 renal, in the test on MDA-N, in the test on KM12 colon, in the test with COLO 205 colon, in the test on A549 NSCLC and with UACC-62 melanoma was over 100 µM each time.

Take `COc1cccc(C2SC(C)C(=O)N2CCc2cccs2)c1` (stereo unspecified): the GI50 was 2.67 µM in the test with KM12 colon; 3.15 µM in the test on NCI-H226 lung; 3.95 µM in the test with DU-145 prostate; 1.47 µM with COLO 205 colon; 3.39 µM with A549 NSCLC; 2.72 µM with SF-268 CNS. In addition, the GI50 with UACC-62 melanoma was 1.76 µM. In addition, the TGI in the test on KM12 colon came to 8.99 µM; with NCI-H226 lung, 17.2 µM; in the test with DU-145 prostate, 14.9 µM; in the test with COLO 205 colon it was 2.82 µM; in the test on A549 NSCLC, 12.7 µM; with SF-268 CNS, 13 µM. In addition, in the test with UACC-62 melanoma, the TGI is 10.7 µM.

Take `CCOC(=O)c1[nH]c2cccc3c2c1CC[C@H](NC(=O)C(F)(F)F)C3=O`: the TGI in the test with 786-0 renal, with MDA-N, in the test on KM12 colon, in the test with NCI-H226 lung, in the test with DU-145 prostate and in the test on COLO 205 colon was over 100 µM in each case. In addition, the TGI with A549 NSCLC and in the test on SF-268 CNS was over 100 µM throughout.

For `O=C(O)CCc1ccc2c(c1)CC1(Cc3ccccc3C1)C2`, the TGI in the test on 786-0 renal, in the test with MDA-N, in the test on KM12 colon, in the test on NCI-H226 lung, with COLO 205 colon and in the test with A549 NSCLC was over 100 µM in each case. The TGI in the test on UACC-62 melanoma is over 100 µM.

Turning to `O=C(N/N=C(/COc1ccccc1Cl)N=Cc1ccncc1)c1ccncc1`, the TGI with 786-0 renal, in the test with MDA-N, with KM12 colon, in the test on DU-145 prostate, with COLO 205 colon and in the test with A549 NSCLC was over 100 µM each time. Besides, the TGI in the test on SF-268 CNS and with UACC-62 melanoma was over 100 µM throughout.

Take `C=Cc1nc(C#N)c(N)o1`: the TGI with 786-0 renal, with MDA-N, with KM12 colon, in the test with NCI-H226 lung, in the test on DU-145 prostate and in the test with COLO 205 colon was over 100 µM throughout. In addition, the TGI in the test with A549 NSCLC and in the test on SF-268 CNS was over 100 µM each time.

Turning to `CCCCCN(CCCCC)CC(C)(C)C(O)c1ccc(OC)c2ccccc12` (stereo unspecified), the TGI in the test on 786-0 renal came to 35.7 µM; with KM12 colon it was 25.4 µM; in the test on NCI-H226 lung it was 33.6 µM; in the test with DU-145 prostate, 28.2 µM; with COLO 205 colon it was 40.6 µM; with A549 NSCLC, 21.1 µM. The TGI in the test with SF-268 CNS was 31.5 µM; in the test with UACC-62 melanoma, 25.6 µM.

In the case of `COc1cc2c(cc1OC)[C@@](C)(C(O)C(O)C(C)(C)O)NCC2` (stereo partly specified), the TGI with 786-0 renal, with MDA-N, in the test with NCI-H226 lung, in the test on DU-145 prostate, in the test on COLO 205 colon and in the test on A549 NSCLC was over 100 µM in each case. Further, the TGI in the test with SF-268 CNS and in the test with UACC-62 melanoma was over 100 µM each time.

For `Cc1ccc(S(=O)(=O)N/N=C2/CCC(C(C)(C)C)CC2Br)cc1` (stereo unspecified), the TGI in the test on 786-0 renal is 99.4 µM; in the test on MDA-N, over 100 µM; in the test on KM12 colon, 47 µM; in the test with NCI-H226 lung, 34 µM; in the test with DU-145 prostate, over 100 µM; in the test with COLO 205 colon, over 100 µM. Moreover, the TGI in the test with A549 NSCLC and in the test with SF-268 CNS was over 100 µM throughout.
